Experimental data published in patent US20250127790A1, “COMBINATION THERAPY USING VPS34 INHIBITORS” (Deciphera Pharmaceuticals, LLC, priority 2021, published 2025).

Assays:
[1] = tested on: 786-O renal cell carcinoma cells; test: Cytokine secretion assay, combination with ADU-S100, 786-O cells; format: cell-based, human; settings: 2 μM Compound 1 or 2, 50 μM ADU-S100, 24 h
Procedure: (§1) 786-O cells were treated with DMSO control, 2 μM Compound 1 or 2 μM Compound 2 in combination with 50 μM STING agonist ADU-S100 for 24 h. Cell culture medium was centrifuged at 1600 rpm for 10 min at 4° C. and obtained supernatant stored at −80° C. Cytokine levels were quantified using following Meso Scale Discovery (MSD) assays: human R-PLEX RANTES/CCL5 (#F21ZN), U-PLEX CXCL10/IP-10 (#K151UFK). Assays were run on the SECTOR Quickplex Imager and analyzed using Discovery Workbench version 4.0 (MSD). Low concentrations of human IFNβ were determined using High Sensitivity IFN Beta ELISA Kit, (PBL assay science, #41415-1).

[2] = tested on: A-498 renal cell carcinoma cells; test: Cytokine secretion assay, combination with ADU-S100, A-498 cells; format: cell-based, human; settings: 2 μM Compound 1 or 2, 50 μM ADU-S100, 24 h
Procedure: as §1, with “A-498” for “786-O”

[3] = tested on: 786-O renal cell carcinoma cells; test: qRT-PCR with siRNA knockdown of STING pathway genes, 786-O cells; format: cell-based, Human; settings: 24 h, vs compound alone; for IFNB1, CCL5 and CXCL10 expression with siRNA knockdown of CGAS / IRF7 expression with siRNA knockdown of CGAS: siCGAS; for IFNB1, CCL5 and CXCL10 expression with siRNA knockdown of CGAS / IRF7 expression with siRNA knockdown of CGAS / IFNB1, CCL5 and CXCL10 expression with siRNA knockdown of STING / IRF7 expression with siRNA knockdown of STING: 2 μM; for IFNB1, CCL5 and CXCL10 expression with siRNA knockdown of STING / IRF7 expression with siRNA knockdown of STING: siSTING; for IFNB1 expression with siRNA knockdown of TBK1 / IRF7, CCL5 and CXCL10 expression with siRNA knockdown of TBK1: siTBK1, 2 μM
[4] = tested on: A-498 renal cell carcinoma cells; test: qRT-PCR, combination with STING agonist ADU-S100, A-498 cells; format: cell-based, Human; settings: 2 μM Compound 1 or 2, 50 μM ADU-S100, 24 h
Procedure: A-498 cells were grown in Minimal Essential Medium containing 10% fetal bovine serum. Cells were then incubated for 2 days at 37 degrees Celsius, 5% CO2, and 95% humidity. A-498 cells were treated with DMSO control, 2 μM Compound 1 or 2 μM Compound 2 in combination with 50 μM STING agonist ADU-S100 for 24 h. Cells were washed with PBS and RNA was isolated using the PureLink RNA kit (#12183018A, Thermo Fisher Scientific) according to the manufacturer's protocol. Genomic DNA was removed using DNA-binding columns (RNeasy plus kit, #74134, Qiagen) and/or DNase treatment (#12185010, Thermo Fisher Scientific). RNA was quantified using NanoDrop (Thermo Fisher Scientific) and 50 ng/μL RNA was used for cDNA synthesis with SuperScript IV VILO Master Mix (#11756050, Thermo Fisher Scientific). Quantitative RT-PCR (qRT-PCR) was run with diluted cDNA (1:25 or 1:12.5), PowerUp SYBR Green Master Mix (#A25741, Thermo Fisher Scientific), and 200 nM primers (see below) on a CFX Connect RT-PCR system (BioRad). Data was analyzed using the ΔΔCT method. Results are mean±SEM of three independent experiments.

B16-F10 melanoma cells = test: qRT-PCR, combination with ADU-S100, B16-F10 cells; format: cell-based, Murine; settings: for IFNB1 mRNA expression: 2 μM Compound 1 or 2, 10 μM ADU-S100, 4 h; for CCL5 mRNA expression / CXCL10 mRNA expression: 2 μM Compound 1 or 2, 10 μM ADU-S100, 24 h
Procedure: B16-F10 cells were grown in DMEM/F12 medium containing 10% fetal bovine serum. Cells were then incubated for 2 days at 37 degrees Celsius, 5% CO2, and 95% humidity. […] cells were reversely transfected with scrambled siRNA control (siSCR) or siRNA targeting STING (siSTING). […] Cells were washed with PBS and RNA was isolated using the PureLink RNA kit (#12183018A, Thermo Fisher Scientific) according to the manufacturer's protocol. Genomic DNA was removed using DNA-binding columns (RNeasy plus kit, #74134, Qiagen) and/or DNase treatment (#12185010, Thermo Fisher Scientific). RNA was quantified using NanoDrop (Thermo Fisher Scientific) and 50 ng/μL RNA was used for cDNA synthesis with SuperScript IV VILO Master Mix (#11756050, Thermo Fisher Scientific). Quantitative RT-PCR (qRT-PCR) was run with diluted cDNA (1:25 or 1:12.5), PowerUp SYBR Green Master Mix (#A25741, Thermo Fisher Scientific), and 200 nM primers (see below) on a CFX Connect RT-PCR system (BioRad). Data was analyzed using the ΔΔCT method. Results are mean±SEM of three independent experiments.

[5] = tested on: 786-O renal cell carcinoma cells; test: qRT-PCR, combination with STING agonist ADU-S100, 786-O cells; format: cell-based, Human; settings: 2 μM Compound 1 or 2, 50 μM ADU-S100, 24 h
Procedure: 786-O cells were grown in RPMI-1640 medium containing 10% fetal bovine serum. Cells were then incubated for 2 days at 37 degrees Celsius, 5% CO2, and 95% humidity. […] cells were treated with DMSO control, 2 μM Compound 1 or 2 μM Compound 2 in combination with 50 μM STING agonist ADU-S100 for 24 h. Cells were washed with PBS and RNA was isolated using the PureLink RNA kit (#12183018A, Thermo Fisher Scientific) according to the manufacturer's protocol. Genomic DNA was removed using DNA-binding columns (RNeasy plus kit, #74134, Qiagen) and/or DNase treatment (#12185010, Thermo Fisher Scientific). RNA was quantified using NanoDrop (Thermo Fisher Scientific) and 50 ng/μL RNA was used for cDNA synthesis with SuperScript IV VILO Master Mix (#11756050, Thermo Fisher Scientific). Quantitative RT-PCR (qRT-PCR) was run with diluted cDNA (1:25 or 1:12.5), PowerUp SYBR Green Master Mix (#A25741, Thermo Fisher Scientific), and 200 nM primers (see below) on a CFX Connect RT-PCR system (BioRad). Data was analyzed using the ΔΔCT method. Results are mean±SEM of three independent experiments.

C[C@@H]1COCCN1c1cc(N2CCCC[C@@H]2C(F)(F)F)[nH]c(=O)c1 [Compound 1, 4-((R)-3-methylmorpholino)-6-((R)-2-(trifluoromethyl)piperidin-1-yl)pyridin-2(1H)-one]
CCL5 secretion [1]: increased | CXCL10 secretion [1]: increased | IFNβ secretion [1]: increased | CCL5 secretion [2]: increased | CXCL10 secretion [2]: increased | IFNβ secretion [2]: increased | IFNB1, CCL5 and CXCL10 expression with siRNA knockdown of CGAS [3]: complete ablation | IRF7 expression with siRNA knockdown of CGAS [3]: significant decreases | IFNB1, CCL5 and CXCL10 expression with siRNA knockdown of STING [3]: complete ablation | IRF7 expression with siRNA knockdown of STING [3]: significant decreases | IFNB1 expression with siRNA knockdown of TBK1 [3]: near complete ablation | IRF7, CCL5 and CXCL10 expression with siRNA knockdown of TBK1 [3]: modest decreases | CCL5 mRNA expression [4]: mildly increased | CXCL10 mRNA expression [4]: mildly increased | IFNB1 mRNA expression [4]: mildly increased | IFNB1 mRNA expression (B16-F10 melanoma cells): did not increase | CCL5 mRNA expression (B16-F10 melanoma cells): mildly increase | CXCL10 mRNA expression (B16-F10 melanoma cells): mildly increase | CCL5 mRNA expression [5]: increased | CXCL10 mRNA expression [5]: increased | IFNB1 mRNA expression [5]: increased

C[C@@H]1COCCN1c1cc(=O)n2c(n1)N(Cc1cncc(Cl)c1)[C@H](C(F)(F)F)CC2 [Compound 2, (S)-9-((5-chloropyridin-3-yl)methyl)-2-((R)-3-methylmorpholino)-8-(trifluoromethyl)-6,7,8,9-tetrahydro-4H-pyrimido[1,2-a]pyrimidin-4-one]
CCL5 secretion [1]: increased | CXCL10 secretion [1]: increased | IFNβ secretion [1]: increased | CCL5 secretion [2]: increased | CXCL10 secretion [2]: increased | IFNβ secretion [2]: increased | IFNB1, CCL5 and CXCL10 expression with siRNA knockdown of CGAS [3]: complete ablation | IRF7 expression with siRNA knockdown of CGAS [3]: significant decreases | IFNB1, CCL5 and CXCL10 expression with siRNA knockdown of STING [3]: complete ablation | IRF7 expression with siRNA knockdown of STING [3]: significant decreases | IFNB1 expression with siRNA knockdown of TBK1 [3]: near complete ablation | IRF7, CCL5 and CXCL10 expression with siRNA knockdown of TBK1 [3]: modest decreases | CCL5 mRNA expression [4]: mildly increased | CXCL10 mRNA expression [4]: mildly increased | IFNB1 mRNA expression [4]: mildly increased | IFNB1 mRNA expression (B16-F10 melanoma cells): did not increase | CCL5 mRNA expression (B16-F10 melanoma cells): mildly increase | CXCL10 mRNA expression (B16-F10 melanoma cells): mildly increase | CCL5 mRNA expression [5]: increased | CXCL10 mRNA expression [5]: increased | IFNB1 mRNA expression [5]: increased

Nc1ncnc2c1ncn2[C@@H]1O[C@@H]2COP(=O)([S-])O[C@@H]3[C@H](O)[C@@H](COP([O-])(=S)O[C@H]2[C@H]1O)O[C@H]3n1cnc2c(N)ncnc21.[Na+].[Na+] (stereo partly drawn) [ADU-S100, reference compound]
CCL5 secretion [1]: significantly increased | CXCL10 secretion [1]: significantly increased | IFNβ secretion [1]: mild effect | CCL5 secretion [2]: mildly increased | CXCL10 secretion [2]: mildly increased | IFNβ secretion [2]: no effect | CCL5 mRNA expression [4]: increased | CXCL10 mRNA expression [4]: increased | IFNB1 mRNA expression [4]: no effect | IFNB1 mRNA expression (B16-F10 melanoma cells): did not increase | CCL5 mRNA expression (B16-F10 melanoma cells): did increase | CXCL10 mRNA expression (B16-F10 melanoma cells): did increase | CCL5 mRNA expression [5]: increased | CXCL10 mRNA expression [5]: no effect | IFNB1 mRNA expression [5]: no effect
